Assay results reported in article PMC9037180, “Ligand-based design and synthesis of N'-Benzylidene-3,4-dimethoxybenzohydrazide derivatives as potential antimicrobial agents; evaluation by in vitro, in vivo, and in silico approaches with SAR studies” (Journal of Enzyme Inhibition and Medicinal Chemistry, 2022).
In brackets after ≈: the same amount, converted by molar mass. Read-outs that look alike come from different tables or passages of the source.

Columns and labels:
[1] = test system: E. faecalis, Acientobacter, P. auriginosa, S. aureus, S. typhi, E. coli, C. albicans; test: Average MIC over the nine tested microbial species (SAR); assay type: cell-based; settings: for antimicrobial activity (SAR grading): based on MIC average values; for MIC: read-out: Average MIC
Excerpt: Herein, we aimed to study the structure-antimicrobial activity relationship of the newly synthesised N'-benzylidene-3,4-dimethoxybenzohydrazide derivatives based on MIC average values[51]^,[52] as represented in the supplementary data (Table SI1). Thereby, the changes in their antimicrobial potential and spectrum upon structural modifications could be unveiled, thus offering clues for structural changes that are capable of increasing the antimicrobial potential.

A. baumanii ATCC 19606 = test: Minimal inhibitory concentration (MIC), broth dilution; settings: Acinetobacter baumannii, ATCC19606
P. aeruginosa ATCC10145 = test: as above; settings: Pseudomonas aeruginosa
E. faecalis ATCC 29212 = test: as above; settings: Enterococcus faecalis, ATCC29212
[2] = test system: S. typhi clinical isolate; test: as above; assay type: cell-based; settings: Salmonella enterica, TYPHI
[3] = Cytotoxicity on cells using MTT assay; assay type: cell-based; settings: African green monkey, Vero cells (normal mammalian cell line)
Description: The newly synthesised compounds were looked deeply into their efficacy using in silico, in vitro, and in vivo approaches. On the other hand, the cytotoxicity assay was performed for the tested compounds using a normal mammalian Vero cell line by the MTT assay[31]^,[32].
Moreover, the cytotoxicity values of the target compounds were determined to calculate their corresponding IC50 values through the MTT assay. The IC50 value indicates the compound’s concentration that is required to inhibit 50% of the target cells.
The MTT (3–(4,5-dimethylthiazol-2-yl)-2,5-diphenyltetrazolium bromide) tetrazolium reduction assay protocol was applied to determine the cytotoxicity of the target compounds (4a–j) on cells.

Aciento MDR = test: Minimal inhibitory concentration (MIC), broth dilution; settings: Acinetobacter baumannii
Aciento sensitive = test: Minimal bactericidal concentration (MBC); assay type: cell-based, A. baumanii; settings: Acinetobacter baumannii
Description: (§1) After determining the MIC for the target compounds, the minimal bactericidal concentration (MBC) for each compound that is required to kill each one of the above-mentioned microorganisms was assessed.

E. coli ATCC 25922 = test: Minimal inhibitory concentration (MIC), broth dilution; settings: Escherichia coli
S. aureus ATCC 6538 = test: as above; settings: Staphylococcus aureus, ATCC6538
C. albicans MTCC183 = test: as above; assay type: cell-based; settings: Candida albicans, MTCC183
Excerpt: (§2) In vitro evaluation for antifungal activities regarding target compounds (4a–j) as well as reference drug, was done against C. albicans MTCC183 through the zone inhibition technique using well diffusion agar assay in addition to MIC.

Acientobacter sensitive = test: as above; settings: Acinetobacter baumannii
E. coli = test: Minimal bactericidal concentration (MBC); assay type: cell-based; settings: Escherichia coli
Description: as §1

E. faecalis = test: Minimal bactericidal concentration (MBC); assay type: cell-based; settings: Enterococcus faecalis
Description: as §1

S. typhi = test: Minimal bactericidal concentration (MBC); assay type: cell-based; settings: Salmonella enterica
S. aureus = test: Minimal bactericidal concentration (MBC); assay type: cell-based; settings: Staphylococcus aureus
Description: as §1

P. Auriginosa = test: Minimal bactericidal concentration (MBC); assay type: cell-based, P. aeruginosa; settings: Pseudomonas aeruginosa
Description: as §1

A. baumanii = test: Minimal bactericidal concentration (MBC); assay type: cell-based; settings: Acinetobacter baumannii
Description: as §1

C. albicans [4] = test: Minimal bactericidal concentration (MBC); assay type: cell-based; settings: Candida albicans
Description: as §1

C. albicans [5] = test: Agar well diffusion assay (antifungal); assay type: cell-based; settings: result in words
Description: The agar well diffusion assay was first done to evaluate the antimicrobial activities of the different target compounds (4a–j) against gram-positive bacteria, gram-negative bacteria, and fungi (Table 1A). […] First, the antibacterial activities were tested against S. aureus ATCC 6538, Acientobacter (A. baumanii) ATCC 19606, S. typhi, E. coli, and P. aeruginosa as examples of the most common gram-positive and gram-negative bacteria, in comparison to vancomycin and ceftriaxone as two reference standards. In addition, the antifungal activities were screened against C. albicans, in comparison to amphotericin as a reference standard. […] The antibacterial activities of some tested compounds (4a, 4b, 4h, and 4e) against gram-positive and gram-negative bacteria by agar well diffusion assay are represented in the supplementary data (Figure SI1).
as §2
A modification of the agar well diffusion method[55] was done to detect the antimicrobial activities of different compounds (4a–j) against gram-positive bacteria, gram-negative bacteria, and fungi. […] The zones of inhibition were measured in cm.

SMILES	antimicrobial activity (SAR grading) [1]	MIC [1] [µM]	MIC (A. baumanii ATCC 19606) [µM]	MIC (P. aeruginosa ATCC10145; ATCC10145) [µM]	MIC (E. faecalis ATCC 29212) [µM]	MIC [2] [µM]	MIC (Aciento MDR) [µM]	MBC (Aciento sensitive) [µM]	MIC (E. coli ATCC 25922; ATCC25922) [µM]	MIC (S. aureus ATCC 6538) [µM]	MIC (C. albicans MTCC183) [µM]	MIC (Acientobacter sensitive) [µM]	MBC (E. coli) [µM]	MBC (E. faecalis) [µM]	MBC (S. typhi) [µM]	MBC (S. aureus) [µM]	MBC (P. Auriginosa) [µM]	other results
COc1ccc(C(=O)NN=Cc2cc(Cl)cc(Cl)c2O)cc1OC [Compound 4f, N'-(3,5-dichloro-2-hydroxybenzylidene)-3,4-dimethoxybenzohydrazide]	moderate antimicrobial activity	73.2 (≈ 27 µg/mL)	42.4 (≈ 15.7 µg/mL)	85 (≈ 31.4 µg/mL)	42.4 (≈ 15.7 µg/mL)	85 (≈ 31.4 µg/mL)	85 (≈ 31.4 µg/mL)	85 (≈ 31.4 µg/mL)	42.4 (≈ 15.7 µg/mL)	170 (≈ 62.7 µg/mL)	85 (≈ 31.4 µg/mL)	21.2 (≈ 7.83 µg/mL)	–	–	–	–	–	IC50 [3]: 2.16 mM
COc1ccc(C(=O)NN=Cc2cc(Br)cc(Br)c2O)cc1OC [Compound 4e, N'-(3,5-dibromo-2-hydroxybenzylidene)-3,4-dimethoxybenzohydrazide]	moderate antimicrobial activity	72.4 (≈ 33.2 µg/mL)	34.2 (≈ 15.7 µg/mL)	68.7 (≈ 31.4 µg/mL)	137 (≈ 62.8 µg/mL)	68.7 (≈ 31.4 µg/mL)	137 (≈ 62.8 µg/mL)	68.7 (≈ 31.4 µg/mL)	17.1 (≈ 7.85 µg/mL)	34.2 (≈ 15.7 µg/mL)	–	17.1 (≈ 7.85 µg/mL)	68.7 (≈ 31.4 µg/mL)	–	–	–	–	MIC (C. albicans MTCC183; C. albicans (CA), read-out: MIC): 137 µM (≈ 62.8 µg/mL)
COc1ccc(C(=O)NN=Cc2cc(C(C)(C)C)cc(C(C)(C)C)c2O)cc1OC [Compound 4g, N'-(3,5-di-tert-butyl-2-hydroxybenzylidene)-3,4-dimethoxybenzohydrazide]	moderate antimicrobial activity	73.7 (≈ 30.4 µg/mL)	75.9 (≈ 31.3 µg/mL)	75.9 (≈ 31.3 µg/mL)	18.9 (≈ 7.82 µg/mL)	37.8 (≈ 15.6 µg/mL)	152 (≈ 62.5 µg/mL)	75.9 (≈ 31.3 µg/mL)	75.9 (≈ 31.3 µg/mL)	152 (≈ 62.5 µg/mL)	37.8 (≈ 15.6 µg/mL)	37.8 (≈ 15.6 µg/mL)	–	75.9 (≈ 31.3 µg/mL)	75.9 (≈ 31.3 µg/mL)	–	–	–
COc1ccc(C(=O)NN=Cc2ccc(NC(C)=O)cc2)cc1OC [Compound 4c, N-(4-((2–(3,4-dimethoxybenzoyl)hydrazono)methyl)phenyl)acetamide]	moderate antimicrobial potential	81.4 (≈ 27.8 µg/mL)	91.8 (≈ 31.3 µg/mL)	22.9 (≈ 7.81 µg/mL)	45.7 (≈ 15.6 µg/mL)	183 (≈ 62.5 µg/mL)	183 (≈ 62.5 µg/mL)	–	22.9 (≈ 7.81 µg/mL)	45.7 (≈ 15.6 µg/mL)	91.8 (≈ 31.3 µg/mL)	45.7 (≈ 15.6 µg/mL)	–	91.8 (≈ 31.3 µg/mL)	–	91.8 (≈ 31.3 µg/mL)	–	–
CO/N=C(\C(=O)N[C@@H]1C(=O)N2C(C(=O)O)=C(CSc3nc(=O)c(=O)[nH]n3C)CS[C@H]12)c1csc(N)n1 [ceftriaxone, reference compound]	–	–	–	–	–	14.1 (≈ 7.81 µg/mL)	–	113 (≈ 62.5 µg/mL)	–	3.52 (≈ 1.95 µg/mL)	–	14.1 (≈ 7.81 µg/mL)	113 (≈ 62.5 µg/mL)	–	225 (≈ 125 µg/mL)	–	225 (≈ 125 µg/mL)	MBC (A. baumanii): 113 µM (≈ 62.5 µg/mL)
CCOc1ccc(C=NNC(=O)c2ccc(OC)c(OC)c2)cc1 [Compound 4b, N'-(4-ethoxybenzylidene)-3,4-dimethoxybenzohydrazide]	weakest antimicrobial activity	140 (≈ 46 µg/mL)	190 (≈ 62.6 µg/mL)	23.8 (≈ 7.82 µg/mL)	381 (≈ 125 µg/mL)	23.8 (≈ 7.82 µg/mL)	381 (≈ 125 µg/mL)	–	23.8 (≈ 7.82 µg/mL)	95.4 (≈ 31.3 µg/mL)	95.4 (≈ 31.3 µg/mL)	47.5 (≈ 15.6 µg/mL)	–	–	95.4 (≈ 31.3 µg/mL)	–	95.4 (≈ 31.3 µg/mL)	MIC (P. aeruginosa ATCC10145; ATCC10145, 24 h): 23.3 µM (≈ 7.64 µg/mL); MIC ([2]; 24 h): 23.3 µM (≈ 7.64 µg/mL); MIC (E. coli ATCC 25922; ATCC25922, 24 h): 23.3 µM (≈ 7.64 µg/mL)
CCCCCCCCCCCCOc1ccc(C=NNC(=O)c2ccc(OC)c(OC)c2)cc1 [Compound 4j, N'-(4-(dodecyloxy)benzylidene)-3,4-dimethoxybenzohydrazide]	moderate antimicrobial activity	74.2 (≈ 34.7 µg/mL)	16.7 (≈ 7.82 µg/mL)	33.3 (≈ 15.6 µg/mL)	16.7 (≈ 7.82 µg/mL)	33.3 (≈ 15.6 µg/mL)	134 (≈ 62.6 µg/mL)	66.8 (≈ 31.3 µg/mL)	66.8 (≈ 31.3 µg/mL)	66.8 (≈ 31.3 µg/mL)	267 (≈ 125 µg/mL)	33.3 (≈ 15.6 µg/mL)	–	33.3 (≈ 15.6 µg/mL)	66.8 (≈ 31.3 µg/mL)	–	–	MBC (A. baumanii): 66.8 µM (≈ 31.3 µg/mL)
COc1ccc(C(=O)NN=Cc2c(C)cc(C)cc2C)cc1OC [Compound 4d, N'-(2,4,6-trimethylbenzylidene)-3,4-dimethoxybenzohydrazide]	weakest antimicrobial activity	149 (≈ 48.7 µg/mL)	192 (≈ 62.5 µg/mL)	96 (≈ 31.3 µg/mL)	96 (≈ 31.3 µg/mL)	96 (≈ 31.3 µg/mL)	383 (≈ 125 µg/mL)	–	47.8 (≈ 15.6 µg/mL)	47.8 (≈ 15.6 µg/mL)	192 (≈ 62.5 µg/mL)	192 (≈ 62.5 µg/mL)	192 (≈ 62.5 µg/mL)	192 (≈ 62.5 µg/mL)	192 (≈ 62.5 µg/mL)	192 (≈ 62.5 µg/mL)	–	–
COc1ccc(C(=O)NN=Cc2ccc(N)cc2)cc1OC [Compound 4a, N'-(4-aminobenzylidene)-3,4-dimethoxybenzohydrazide]	high antimicrobial activity	58 (≈ 17.4 µg/mL)	105 (≈ 31.3 µg/mL)	52.1 (≈ 15.6 µg/mL)	52.1 (≈ 15.6 µg/mL)	52.1 (≈ 15.6 µg/mL)	105 (≈ 31.3 µg/mL)	105 (≈ 31.3 µg/mL)	52.1 (≈ 15.6 µg/mL)	26.1 (≈ 7.82 µg/mL)	26.1 (≈ 7.82 µg/mL)	52.1 (≈ 15.6 µg/mL)	105 (≈ 31.3 µg/mL)	105 (≈ 31.3 µg/mL)	105 (≈ 31.3 µg/mL)	105 (≈ 31.3 µg/mL)	105 (≈ 31.3 µg/mL)	MBC (C. albicans [4]): 105 µM (≈ 31.3 µg/mL); IC50 [3]: 0.407 mM; zones of inhibition (antifungal activity) (C. albicans [5]): best antifungal activity
